For this experiment, the target named is DNMT1 (Homo sapiens, UniProt P26358). It is filed as biochemical.

One compound from PMC3043358 (The Prostate, 2010) can be followed below.

Sequence of DNMT1 (P26358 whole entry): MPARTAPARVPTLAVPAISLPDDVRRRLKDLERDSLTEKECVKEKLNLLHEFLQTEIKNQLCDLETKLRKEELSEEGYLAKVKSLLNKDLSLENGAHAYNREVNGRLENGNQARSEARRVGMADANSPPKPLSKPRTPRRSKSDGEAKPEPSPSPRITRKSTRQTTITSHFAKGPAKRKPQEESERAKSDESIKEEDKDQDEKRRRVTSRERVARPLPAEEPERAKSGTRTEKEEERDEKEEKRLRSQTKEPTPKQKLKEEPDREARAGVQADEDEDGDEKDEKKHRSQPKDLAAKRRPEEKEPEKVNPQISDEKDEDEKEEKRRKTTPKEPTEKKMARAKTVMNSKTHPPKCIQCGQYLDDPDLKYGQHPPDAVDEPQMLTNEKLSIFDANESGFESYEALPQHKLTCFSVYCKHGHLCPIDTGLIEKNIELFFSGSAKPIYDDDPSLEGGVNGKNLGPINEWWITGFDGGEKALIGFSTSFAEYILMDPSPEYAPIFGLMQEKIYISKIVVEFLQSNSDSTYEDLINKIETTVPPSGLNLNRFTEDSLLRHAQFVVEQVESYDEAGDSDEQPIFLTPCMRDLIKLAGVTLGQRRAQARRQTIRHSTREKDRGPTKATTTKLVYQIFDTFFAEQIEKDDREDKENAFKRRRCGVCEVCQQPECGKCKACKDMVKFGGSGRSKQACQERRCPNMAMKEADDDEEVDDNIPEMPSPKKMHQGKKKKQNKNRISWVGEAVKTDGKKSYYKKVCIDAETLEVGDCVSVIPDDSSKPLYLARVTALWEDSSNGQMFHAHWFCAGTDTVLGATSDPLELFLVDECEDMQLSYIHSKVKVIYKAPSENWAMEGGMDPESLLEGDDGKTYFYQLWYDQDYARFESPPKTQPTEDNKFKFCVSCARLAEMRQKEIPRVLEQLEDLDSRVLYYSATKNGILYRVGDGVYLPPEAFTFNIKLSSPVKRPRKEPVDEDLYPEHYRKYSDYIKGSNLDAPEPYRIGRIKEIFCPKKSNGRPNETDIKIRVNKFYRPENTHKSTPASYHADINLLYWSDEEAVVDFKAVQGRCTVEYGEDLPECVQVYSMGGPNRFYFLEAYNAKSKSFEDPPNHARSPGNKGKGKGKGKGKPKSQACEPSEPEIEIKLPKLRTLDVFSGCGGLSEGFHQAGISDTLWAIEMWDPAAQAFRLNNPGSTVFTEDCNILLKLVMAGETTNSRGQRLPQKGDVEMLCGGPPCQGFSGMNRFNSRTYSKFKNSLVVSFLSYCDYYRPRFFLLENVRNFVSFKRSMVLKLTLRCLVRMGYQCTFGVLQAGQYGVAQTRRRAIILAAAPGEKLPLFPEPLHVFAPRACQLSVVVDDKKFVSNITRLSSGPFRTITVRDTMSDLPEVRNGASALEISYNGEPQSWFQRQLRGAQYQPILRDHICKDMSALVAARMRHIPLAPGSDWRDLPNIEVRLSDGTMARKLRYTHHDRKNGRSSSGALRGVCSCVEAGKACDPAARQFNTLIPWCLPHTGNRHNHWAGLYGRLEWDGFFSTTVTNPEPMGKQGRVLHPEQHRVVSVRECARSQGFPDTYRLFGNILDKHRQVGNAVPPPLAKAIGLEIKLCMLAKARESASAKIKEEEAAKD

On to `CCN(CC)C(=S)SSC(=S)N(CC)CC` [DSF, Disulfiram], for which the “in vitro methyltransferase assay, tritium incorporation from 3H-AdoMet into hemi” value is given as 95% reduction of activity at 200.
